# US5733931A, “Cyclohexanediurea derivative and process for its production” (Nissin Food Products Co., Ltd., priority 1993, dated 1998)
# Tests used:
# [1] = biological target: T1, ACAT enzyme of rabbit small intestine mucosa microsomes (Oryctolagus cuniculus, UniProt G1SFD9); test: Inhibitory effect on ACAT enzyme (No.2), rabbit small intestine mucosa microsomes; type: biochemical; conditions: pH 7.4, 37° C., 60 minutes, Table 10
# T1 construct: Microsomes of the liver and small intestine mucosa were prepared; from tissue; host or cells: small intestine mucosa microsomes of a cholesterol-fed white male rabbit
# T1 sequence (G1SFD9 1-524): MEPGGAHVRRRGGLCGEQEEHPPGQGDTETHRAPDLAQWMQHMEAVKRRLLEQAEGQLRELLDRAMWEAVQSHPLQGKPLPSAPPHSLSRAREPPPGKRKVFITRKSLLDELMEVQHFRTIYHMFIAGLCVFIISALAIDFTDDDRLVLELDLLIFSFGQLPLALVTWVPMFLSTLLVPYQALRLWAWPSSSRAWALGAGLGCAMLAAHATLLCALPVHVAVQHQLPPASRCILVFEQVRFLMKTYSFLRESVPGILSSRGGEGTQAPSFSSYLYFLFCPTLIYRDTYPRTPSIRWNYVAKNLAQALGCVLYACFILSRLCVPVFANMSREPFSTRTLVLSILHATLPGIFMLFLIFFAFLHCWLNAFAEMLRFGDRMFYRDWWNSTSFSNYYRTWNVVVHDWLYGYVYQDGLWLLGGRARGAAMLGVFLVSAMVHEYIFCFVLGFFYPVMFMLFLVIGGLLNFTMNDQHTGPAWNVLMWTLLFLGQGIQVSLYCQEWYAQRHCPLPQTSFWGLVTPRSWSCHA
# Method: (§1) 2) Inhibitory effect on ACAT (Acyl-CoA: cholesterol acyltransferase) enzyme (No.2)
# (§2) [2-1] ACAT enzyme activities of rabbit liver and small intestine mucosa microsomes
# (§3) A white male rabbit was fed with a […] cholesterol-containing food for four weeks and bleeding-slaughtered to extract its liver and small intestine. Microsomes of the liver and small intestine mucosa were prepared by the method of C. Marco et al. (Biochim. Biophys. Acta, 617, 458-471, 1980).
# (§4) ACAT enzyme activities of the microsomes were determined by the method of J. G. Heider (J. Lipid Res., 24, 1127-1134, 1983). A test sample dissolved in 1% dimethylsulfoxide was added to a microsome fraction (100 μg), a phosphoric acid buffer (0.154M) having pH 7.4, 1-^14 C-oleoyl CoA (36 μM), dithiosleitol (2 mM) and bovine blood serum albumin (36 μg/ml). The reaction mixture adjusted to a final capacity of 0.5 ml was incubated at 37° C. for 60 minutes. A mixture (6 ml) of chloroform and methanol (2:1) was added and the reaction was stopped. Cholesterol oleate was extracted with chloroform and separated by thin-layer chromatography. ACAT enzyme activities of the microsome fractions were determined by radiation measurement.
# [2] = tested on: ACAT enzyme of human HepG2 cells; test: ACAT enzyme activity of human HepG2 cells (microsome fractions); type: biochemical; conditions: Table 11, read-out: IC50, inhibitory effect on ACAT enzyme activity, human HepG2
# Method: as §4
# (§5) [2-2] ACAT enzyme activities of human HepG2 and CaCo2 cells
# (§6) Human HepG2 and CaCo2 cells purchased from ATCC (AMERICAN TYPE CULTURE COLLECTION) were used in this test.
# (§7) Using RPMI 1640 medium for HepG2 and DMEM medium for CaCo2, HepG2 and CaCo2 cells were cultured with 40 ml of each medium containing 10% bovine blood serum, 50 I.U. of penicillin and 50 μg/ml of streptomycin in a 5% CO2 incubator at 37° C. The cells were then monolayer-culturedwith 80 ml of each medium containing […] of cholesterol and 5 μg/ml of 25-0H cholesterol in a 175 cm flask for 5 hours. The homogenizes of these cells were subjected to centrifugation at 105,000 g to collect microsome fractions. ACAT enzyme activities of the microsome fractions were determined by the above-mentioned method.
# serum cholesterol [3] = test: Serum cholesterol lowering effect in rat having high cholesterol [3-2]; type: in vivo, SD-type (Sprague-Dawley) male rat; conditions: oral, once a day for the last 5 days, Tween 80 and saline suspension, Table 13
# Method: [3-2] Using a rat having high cholesterol, compounds of the invention were tested for their serum cholesterol lowering effects by the following method. A 6-week-old SD-type (Sprague-Dawley) male rat was fed with food containing 1% of cholesterol, 0.5% of cholic acid and 5% of olive oil for 7 days. For the last 5 days, a test sample suspended in some drops of Tween 80 and saline was orally administered once a day. Four hours after the final administration, a blood sample was taken from celiac aorta of the rat under etherization. The total cholesterol in the serum of the test group was measured by the oxygen method and compared with that of the control group.
# [4] = tested on: ACAT enzyme of human CaCo2 cells; test: ACAT enzyme activity of human CaCo2 cells (microsome fractions); type: biochemical; conditions: Table 11, read-out: IC50, inhibitory effect on ACAT enzyme activity, human CaCo2
# Method: as §4, §5, §6, §7
# [5] = biological target: ACAT (Acyl-CoA: cholesterol acyltransferase) enzyme of rabbit liver microsome; test: Inhibitory effect on ACAT enzyme (No.1), rabbit liver microsome; type: biochemical; conditions: Table 9
# Method: 1) Inhibitory effect on ACAT (Acyl-CoA: cholesterol acyltransferase) enzyme (No.1)
# Compounds of the invention were tested for their inhibitory effects on ACAT enzyme of rabbit liver microsome by the method of J. G. Heider (J. of Lipid Res., vol. 24, 1127-1134, 1983). More specifically, the test was done by measuring the amount of labelled cholesterol oleate ester produced from oleic acid CoA (coenzyme A) labelled by radiation.
# serum cholesterol [6] = test: Serum cholesterol lowering effect in rat having high cholesterol [3-1]; type: in vivo, SD-type (Sprague-Dawley) male rat; conditions: oral, once a day for 5 days, dissolved in saline, Table 12
# Method: 3) Cholesterol Lowering Effect
# [3-1] Using a rat having high cholesterol, compounds of the invention were tested for their serum cholesterol lowering effects by the following method. A 6-week-old SD-type (Sprague-Dawley) male rat was fed with food containing 1% of cholesterol, 0.5% of cholic acid and 5% of olive oil for 2 days and then orally administered the food and a compound of the invention as dissolved in saline once a day for 5 days starting on day 3. Four hours after the final administration, a blood sample was taken. The total cholesterol in the serum of the test group was measured and compared with that of the control group.
# [7] = biological target: ACAT enzyme of rabbit liver microsomes; test: Inhibitory effect on ACAT enzyme (No.2), rabbit liver microsomes; type: biochemical; conditions: pH 7.4, 37° C., 60 minutes, Table 10
# Method: as §1, §2, §3, §4
SMILES,IC50 [1],IC50 [2],"Cholesterol lowering effect, % (serum total cholesterol vs control group) (serum cholesterol [3]; 1 mg/kg)","Cholesterol lowering effect, % (serum total cholesterol vs control group) (serum cholesterol [3]; 3 mg/kg)",IC50 [4],IC50 [5],"Cholesterol lowering effect, % (serum total cholesterol vs control group) (serum cholesterol [6]; 3 mg/kg)","Cholesterol lowering effect, % (serum total cholesterol vs control group) (serum cholesterol [6]; 10 mg/kg)",IC50 [7]
"CC1CCC(N(C[C@H]2CC[C@H](CN(C(=O)Nc3ccc(N(C)C)cc3)C3CCC(C)CC3)CC2)C(=O)Nc2ccc(N(C)C)cc2)CC1 (relative stereo) [Example 28, Trans-1,4-bis[[3-(4-dimethylaminophenyl)-1-(4-methylcyclohexyl)ureido]methyl]cyclohexane]",30 nM,1.2 nM,70.2%,106.5%,0.52 nM,25 nM,106%,100%,42 nM
"CN(C)c1ccc(NC(=O)N(C[C@H]2CC[C@H](CN(C(=O)Nc3ccc(N(C)C)cc3)C3CCCCCC3)CC2)C2CCCCCC2)cc1 [Example 22, Trans-1,4-bis[[1-cycloheptyl-3-(4-dimethyaminophenyl)ureido]methyl]cyclohexane]",18 nM,0.32 nM,77.6%,97.2%,0.22 nM,,,,83 nM
